Our source for the melting point values is patent publication US20020091107A1 (published 2002).

As to `CC(=O)NC[C@H]1CN(c2ccc(/C=C3\C(=O)N(c4ccccc4)N=C3C(C)(C)C)cc2)C(=O)O1`, the melting point stood at 70 °C.

In the case of `CC(=O)NC[C@H]1CN(c2ccc(/C=C3/C(=O)N(C)c4ccccc43)cc2)C(=O)O1`, the melting point lay in the range of 193 to 195 °C.
